Experimental data taken from US10519154B2, “7-substituted 1-pyridyl-naphthyridine-3-carboxylic acid amides and use thereof” (Bayer Pharma Aktiengesellschaft, priority 2016, dated 2019).

Columns and labels:
human M2 receptor [1] = target: T1, human M2 receptor (Homo sapiens, UniProt P08172); assay: Functional M2-GIRK1/4 activation test: allosteric potency (EC50) and efficiency; settings: for EC50: Receptor activity EC50, CHO-DUKX-M2-GIRK cells, acetylcholine at EC20, in some cases mean of two or more determinations; for Emax: read-out: Efficiency, boosting of the acetylcholine effect at EC20 acetylcholine concentration, CHO-DUKX-M2-GIRK cells
T1 sequence (P08172 1-466): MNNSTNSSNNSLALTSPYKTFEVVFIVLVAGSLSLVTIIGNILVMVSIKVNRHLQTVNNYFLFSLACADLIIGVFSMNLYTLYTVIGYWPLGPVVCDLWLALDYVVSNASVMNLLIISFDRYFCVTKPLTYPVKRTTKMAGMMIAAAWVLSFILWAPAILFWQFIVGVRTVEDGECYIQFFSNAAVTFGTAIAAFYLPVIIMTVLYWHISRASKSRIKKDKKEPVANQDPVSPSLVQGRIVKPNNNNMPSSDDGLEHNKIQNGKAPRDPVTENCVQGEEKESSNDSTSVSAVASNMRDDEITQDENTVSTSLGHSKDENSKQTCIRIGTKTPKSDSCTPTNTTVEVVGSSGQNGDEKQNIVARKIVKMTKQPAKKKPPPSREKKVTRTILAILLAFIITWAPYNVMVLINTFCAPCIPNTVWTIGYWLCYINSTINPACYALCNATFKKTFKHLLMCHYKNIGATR

human M2 receptor [2] = target: T1, human M2 receptor; assay: Functional M2-GIRK1/4 activation test: positive cooperativity (alpha factor); settings: shift of acetylcholine dose-response curve (Allosteric EC50 shift); CHO-DUKX-M2-GIRK cells
Excerpt: The binding of orthosteric agonists (endogenous ligand: acetylcholine) to the M2 receptor leads to receptor activation or a change in conformation of the receptor in the manner of a shift in equilibrium in favor of the active receptor conformation.
The agonist-induced change in conformation of the M2 receptor results in a Gαi protein activation. […] Under physiological conditions, the result is then a selective efflux of potassium from the cell along the electrochemical gradient. […] The extent of hyperpolarization can therefore be regarded as a measure of the activation of the M2 receptor.
The test cell used is a recombinant CHO-DUKX cell line which has been stably transfected with cDNA coding for the human M2 receptor and with cDNA coding for both GIRK1/4 subunits (CHO-DUKX-M2-GIRK). The transmembrane potential, or the relative changes in the transmembrane potential as a function of substance addition or M2 activation, is determined by means of a voltage-sensitive dye (FLIPR Membrane Potential Assay Kit Blue, Molecular Devices #R8034) and the measurement of cell fluorescence using a proprietary fluorescence imaging instrument.
In accordance with the desired test concentrations, the substances were pre-diluted in loading buffer (see above).
The sowing medium consisted of MEM alpha medium (supplemented with 5% FCS, 2% Glutamax, no genticin).
For the particular measurement, the medium was removed and the cells were laden with the voltage-sensitive dye for at least 6 min at room temperature (30 μl of loading buffer per 384-well). This was followed, in a first measurement, by the determination of the resting transmembrane potential for a period of 5 sec in 1 sec increments. Thereafter, 10 μl in each case of the test substances diluted in loading buffer are added, followed by a second measurement to determine the transmembrane potential for a period of 50 sec in 1 sec increments.
Finally, the cells are admixed with 10 μl of agonist solution (acetylcholine dissolved in loading buffer). In contrast to the EC50 determination of the test substances (see B-1.1), however, this is not done using one acetylcholine concentration; instead, every concentration of the test substance is combined with an acetylcholine 8-point dose-response curve. […] The M2-mediated GIRK1/4 activation or hyperpolarization is then monitored in a third measurement over a period of 60 sec in 1 sec increments. The shift in the acetylcholine dose-response curve in the presence of increasing concentrations of the test substance is analyzed and quantified by means of GraphPad PRISM (Allosteric EC50 shift). […] Positive cooperativity is the hallmark of a positive allosteric modulator. […] The greater the magnitude of the cc value, the greater the extent of cooperativity between orthosteric and allosteric.

SMILES | EC50 (human M2 receptor [1]) | Emax (human M2 receptor [1]) | Cooperativity (alpha factor) (human M2 receptor [2])
CC(C)(C)[C@H](NC(=O)c1cn(-c2ncc(F)cc2F)c2nc(N3C[C@@H](O)CC3=O)ccc2c1=O)C(F)(F)F [Example 98, 1-(3,5-Difluoropyridin-2-yl)-7-[(4S)-4-hydroxy-2-oxopyrrolidin-1-yl]-4-oxo-N-[(2S)-1,1,1-trifluoro-3,3-dimethylbutan-2-yl]-1,4-dihydro-1,8-naphthyridine-3-carboxamide] | 23 nM | 100% | 56
O=C(NC(C(F)(F)F)C(F)(F)F)c1cn(-c2ncc(F)cc2F)c2nc(N3C[C@@H](O)CC3=O)ccc2c1=O [Example 15, 1-(3,5-Difluoropyridin-2-yl)-N-(1,1,1,3,3,3-hexafluoropropan-2-yl)-7-[(4S)-4-hydroxy-2-oxopyrrolidin-1-yl]-4-oxo-1,4-dihydro-1,8-naphthyridine-3-carboxamide] | 43 nM | 96.2% | 63
O=C(NC(c1ccccc1Cl)C(F)(F)F)c1cn(-c2ncc(F)cc2F)c2nc(N3C[C@@H](O)[C@H](O)C3)ccc2c1=O (single isomer, unassigned) [Example 84] | 20 nM | 100% | 57
